Series [1] has as its target T1, FRβ (CHO-β) (Homo sapiens, UniProt P14207).
T1 construct: expressed in transfected cells; host or cells: CHO (Chinese hamster ovary) cells
The series is described as follows: 3H-EC17 cell-based radioligand binding assay on CHO-β cells. The conditions noted are these: 2 h at 37° C. How it is done:
FIG. 10, Panel A: Kd values of ^3H-EC17 uptake by FR+ target cells after a 2 hour incubation at 37° C. (calculated from the numbers of molecules bound per cell). Panel B: Kd value of ^3H^−EC17 uptake by E2-CAR-T cells (˜24% EGFRt+, ˜95:5 CD8/CD4 ratio) after a 2 hour incubation at room temperate (calculated from total cell-associated radioactivity, DPM).
The bispecific affinities of EC17 CAM (a CAM is equivalent to a “bridge” or the “compound” in this application) were assessed using ^3H-EC17 in cell-based radioligand binding assays. […] The whole cell lysates were quantitated for the level of radioactivity and cellular protein content by standard Pierce BCA protein assay. The number of ^3H-EC17 molecules bound per cell was calculated to determine the dissociation constants (Kd) for FRα (KB) and FRβ (CHO-β) respectively (FIG. 10).
The EC17 has already been tested in the clinic for immunotherapy and optical imaging purposes. To directly quantify its bispecific binding affinities, ^3H-EC17 was synthesized and radioligand binding assays were carried out on KB and CHO-β cell lines representing FRα+ and FRβ+ target cells, respectively, and on unsorted EGFRt CAR-T cells representing the effector cells.

Series [2] has as its system MDA-MB-231 xenografts. In words: EC17 dose finding and CRS assessment in MDA-MB-231 tumor-bearing mice. The conditions noted are these: for human IFNγ in mouse plasma, fold over tumor-bearing mice with CAR-T cells only: all EC17 treated tumor cohorts. It counts as in vivo. The source says:
Panel A: Schematic diagram to show dose scheduling of CAR-T cells (˜10 million “clinical facsimile”) plus EC17 dosed 3 different ways in NSG mice without or with pre-established MDA-MB-231 xenografts. Tumor-free mice received EC17 SIW 500 nmol/kg (2 doses on days 2 and 10). Tumor-bearing mice received EC17 as follows: EC17 SIW 500 nmol/kg (5 doses on days 2, 10, 17, 24, and 31), EC17 M/Th/M_Escalation-1 (repeats of 5/50/500 nmol/kg on Monday/Thursday/Monday followed by 1-week break, i,e. on days 2, 6, 10, 17, 20, 24, and 31), or EC17 M/Th/M_Escalation-2 (repeats of 5/100/1000 nmol/kg on Monday/Thursday/Monday followed by 1-week break, i.e. days 2, 6, 10, 17, 20, 24, and 31). Panel B: Systemic levels of human IFNγ on a log 2 scale detected in mouse plasma on days 11 and 12 after CAR-T cell injection in tumor-bearing versus tumor-free mice (i.e., ˜20 and 42 hours after the previous EC17 dose in all treated cohorts). Panel C: Circulating CAR-T cells in mouse blood identified as human CD3ε+ EGFRt+ events by flow cytometry and enumerated per 100 μL of whole blood. Panel D: Measurements of change in body weight and tumor volume in tumor-bearing mice that received CAR-T cells only or CAR-T cells plus EC17 dosed 3 different ways (dashed lines indicated each EC17 dose). n=5 mice per group. All data represent mean±s.e.m. * p<0.05 by one-way ANOVA test.
All animal care and use were performed according to NIH guidelines and in compliance with protocols approved by the Purdue University Animal Use and Care Committee. Female 4 to 5-week-old NOD/SCID gamma (NSG™) mice (stock number: 005557) were purchased from The Jackson Laboratory (Bar Harbor, ME). Unless specifically indicated, all animals were maintained on a FA-deficient diet (TestDiet, St. Louis, MO) upon arrival and throughout the study. To establish subcutaneous xenografts, MDA-MB-231 and HOS-FRα were implanted in the right flank region at 2.5×10^6 and 1×10^6 cells per animal, respectively. For intravenous xenografts, THP1-FRβ cells were inoculated at 5×10^6 cells per animal. Subcutaneous tumors were measured 2-3 times per week with a caliper and calculated using the ellipsoidal formula (length×width^2)/2. […] All animal doses (CAR-T cells, EC17, sodium fluorescein) were given intravenously.
In a therapeutic setting, EC17 CAM can be given before or after CAR-T cell injection. As described herein, the first dose of EC17 was administered 2-3.5 days after CAR-T cells to allow for an observation period of human T cells in tumor-bearing mice. Two batches of unsorted E2-CAR-T cells (23% or 39% EGFRt+, 1:1 CD4/CD8) were used for in vivo studies. On the day of infusion for each experiment (day 0), frozen CAR-T cells were quickly thawed at 37° C., washed 2× with Dulbecco's 1×PBS (pH 7.4) and injected into the tail vein at desired EGFRt+ E2-CAR-T cell doses. In addition, a small aliquot of CAR-T cells was analyzed by flow cytometry for CD4 to CD8 ratio and differentiation status of CAR-T cells. On the first day of EC17 dose, tumor-bearing animals were randomly assigned into groups according to their tumor sizes or the same number of days post intravenous implantation (i.e., THP1-FRβ).
For MDA-MB-231 studies, mice received a high dose (˜10 million) of a “clinical facsimile” of E2-CAR-T cells (˜39% EGFRt+) with a low differentiation profile (FIG. 9). Two days later, 3 different treatment regimens of EC17 were started at an average tumor size of ˜293±39 mm^3 (FIG. 12). The EC17 dosing was given once-a-week (SIW) at 500 nmol/kg on Mondays, or as escalating doses of 5, 50 or 100, and 500 or 1000 nmol/kg (i.e., 5/50/500 or 5/100/1000) on Monday, Thursday, and Monday with a 6-day break in-between cycles. Control mice were left untreated (received CAR-T cells but no EC17). For comparison, a cohort of tumor-free littermates also received the same number of CAR-T cells without or with EC17 SIW at 500 nmol/kg. […]

The record followed here is US12240870B2, “Sequencing method for CAR T cell therapy” (Purdue Research Foundation, priority 2018, dated 2025).

Structures are written as SMILES. pKd: −log10 of the molar value.

T1 sequence (P14207 17-230): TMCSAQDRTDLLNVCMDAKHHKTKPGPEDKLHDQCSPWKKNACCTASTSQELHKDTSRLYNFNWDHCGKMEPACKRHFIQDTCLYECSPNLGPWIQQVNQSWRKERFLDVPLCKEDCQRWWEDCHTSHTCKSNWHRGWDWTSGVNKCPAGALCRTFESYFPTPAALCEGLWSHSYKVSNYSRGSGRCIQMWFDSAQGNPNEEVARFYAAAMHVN

A word on the pKd: it is −log10 of the Kd, conventionally taken in molar units. A high value points to a small Kd. Consider `Nc1nc2ncc(CNc3ccc(C(=O)N[C@@H](CCC(=O)NCCNC(=S)Nc4ccc(-c5c6ccc(=O)cc-6oc6cc(O)ccc56)c(C(=O)O)c4)C(=O)O)cc3)nc2c(=O)[nH]1` [EC17, FA-(γ)-ethylenediamine-FITC], for which, in series [1], the pKd is 9.10. Also, in series [2] (EC17-treated cohorts (SIW, Escalation-1, Escalation-2)), the cures was determined as 100%. For the same compound, the body weight loss result is reported as “persistent body weight loss” in series [2] (EC17 Escalation-2 regimen 5/100/1000 nmol/kg M/Th/M) and “significant body weight losses” in series [2] (tumor-bearing cohorts, continued EC17 dosing independent of the regimen). The “onset of CRS and body weight loss” value in series [2] (EC17 SIW at 500 nmol/kg) was “earliest onset of CRS and body weight loss”. The “human IFNγ in mouse plasma, fold over tumor-bearing mice with CAR-T cells only” value in series [2] (day 11 (~20 hours after previous EC17 dose), ~10 million CAR-T) was approximately 30 ×; in series [2] (day 12 (~42 hours after previous EC17 dose), ~10 million CAR-T), approximately 10 ×. In addition, the CRS grade in series [2] (tumor-bearing cohorts, continued EC17 dosing independent of the regimen, ~10 million CAR-T) is given as 2-3.
